Values of other authors as cited in US8747895B2 (priority 2004, dated 2014).
Like-named read-outs stand apart in the source and are kept apart here.

Conditions: for absolute bioavailability: oral administration

(−)-N-Methyl-3-(o-tolyloxy)-propylamine hydrochloride [Atomoxetine]
absolute bioavailability (EMs (extensive metabolizers)): 63%
absolute bioavailability (PMs (poor metabolizers)): 94%
delay of Tmax with food (standard high-fat meal): 3 h
lower Cmax with food (standard high-fat meal): 10-37%
